Assay results from US5053006A, “Method for the permanent occlusion of arteries” (priority 1990, dated 1991).

Tests used:
[1] = compared with rose bengal; cited from earlier work
middle cerebral artery = experiment: Erythrosin B photothrombotic occlusion of middle cerebral artery; type: in vivo, rat
[2] = Absorption / excitation of the dye in tissue; type: physicochemical; details: endothelial tissue
From the text: Examples of lasers that can be used to provide the light beam include the He-Ne laser, the argon ion laser and the argon-pumped dye laser. The 543.5 nm He-Ne laser, for example, can excite rose bengal with an efficiency of 58% of the maximum. (The wavelength at which excitation efficiency for rose bengal is maximal in tissue occurs at 562 nm.) Because the maximum theoretical power output is only 4 or 5 milliwatts, the 543.5 nm He-Ne laser is not used in clinical applications at this time. However, this laser is expected to be particularly useful in permanently occluding relatively low-flow arteries, smaller than about 200 μm, such as those in the choroid of the eye.
The argon ion laser is the most common clinical laser used at this time. Although the commonly used argon 514.5 nm line is only 36% efficient with respect to the maximum of rose bengal absorption, this laser is much more powerful (by at least a factor of 1000) and versatile than the He-Ne laser.
The absorption maximum of erythrosin B in endothelial tissue is at 536 nm, which is closer than that of rose bengal to the standard 514.5 nm wavelength of the argon ion laser.

[3] = in vivo; cited from earlier work

| absorption maximum in endothelial tissue [2] | Compound | quantum efficiency for singlet oxygen production [1] | photothrombotic efficiency in vivo (middle cerebral artery; 514.5 nm argon line, vs rose bengal) | photothrombotic occlusion of rat MCA (middle cerebral artery; i.v., argon ion laser, 680 μM blood concentration) | half life [3] |
| --- | --- | --- | --- | --- | --- |
| 536 nm | O.O=C([O-])c1ccccc1-c1c2cc(I)c(=O)c(I)c-2oc2c(I)c([O-])c(I)cc12.[Na+].[Na+] [erythrosin B] | slightly less | comparable photothrombotic efficiency | photothrombotically occlude the rat middle cerebral artery in the same fashion as rose bengal |  |
|  | dihematoporphyrin ether [dihematoporphyrin ether derivative] |  |  |  | so long |
